Measured values reported in patent US12497408B2, “Tetracyclic compounds and methods for the treatment of Zika virus infection” (priority 2021, dated 2025).

System: ZIKV
Experiment: ZIKV reporter virus-based antiviral screening on Huh7 cells
Type: cell-based, Zika virus
Settings: Zika virus, Huh-7, 48 h, Huh7 cells infected with recombinant luciferase reporter ZIKV (MOI about 0.1), luciferase signal
Procedure, shortened: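 Huh7 cells in 2% FBS assay medium infected at MOI about 0.1 with Renilla or Nano luciferase ZIKV premixed with nine-point compound dilutions, 48 hrs at 37° C. Luciferase signal normalized to DMSO controls as 100%; viability optionally by CellTiter-Glo with Rlu virus.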

Question: How did the EC50 turn out when `COC(=O)N[C@H](C(=O)N1C[C@H](C)C[C@H]1c1nc(Cl)c(-c2cc3c4c(c2)OCc2cc(-c5[nH]c([C@@H]6C[C@@H](C)CN6C(=O)[C@@H](NC(=O)OC)C(C)C)nc5C(C)C)cc(c2-4)OC3)[nH]1)C(C)C` [Compound 84, methyl ((S)-1-((2S,4R)-2-(5-(7-(4-chloro-2-((2S,4R)-1-((methoxycarbonyl)-L-valyl)-4-methylpyrrolidin-2-yl)-1H-imidazol-5-yl)-5,10-dihydrochromeno[5,4,3-cde]chromen-2-yl)-4-isopropyl-1H-imidazol-2-yl)-4-methylpyrrolidin-1-yl)-3-methyl-1-oxobutan-2-yl)carbamate] was run?
Answer: 3.3 nM

Question: How did the EC50 turn out when `COC(=O)N[C@H](C(=O)N1[C@@H]2C[C@@H]2C[C@H]1c1nc(Cl)c(-c2cc3c4c(c2)OCc2cc(-c5[nH]c([C@@H]6C[C@H]7C[C@H]7N6C(=O)[C@@H](NC(=O)OC)C(C)C)nc5Cl)cc(c2-4)OC3)[nH]1)C(C)C` [Compound 46, dimethyl ((2S,2′S)-((1R,1′R,3S,3′S,5R,5′R)-((5,10-dihydrochromeno[5,4,3-cde]chromene-2,7-diyl)bis(4-chloro-1H-imidazole-5,2-diyl))bis(2-azabicyclo[3.1.0]hexane-3,2-diyl))bis(3-methyl-1-oxobutane-1,2-diyl))dicarbamate] was run?
Answer: 5 nM

Question: With `CC[C@H](C)[C@H](NC(=O)OC)C(=O)N1[C@H](c2nc(Cl)c(-c3cc4c5c(c3)OCc3cc(-c6[nH]c([C@@H]7C[C@@H]8CCCC[C@@H]8N7C(=O)[C@@H](NC(=O)OC)[C@@H](C)CC)nc6Cl)cc(c3-5)OC4)[nH]2)C[C@@H]2CCCC[C@@H]21` [Compound 39, dimethyl ((2S,2′S,3S,3′S)-((2S,2′S,3aS,3a′S,7aS,7a′S)-((5,10-dihydrochromeno[5,4,3-cde]chromene-2,7-diyl)bis(4-chloro-1H-imidazole-5,2-diyl))bis(octahydro-1H-indole-2,1-diyl))bis(3-methyl-1-oxopentane-1,2-diyl))dicarbamate] as the compound, how does the EC50 read?
Answer: 10.9 nM

Question: With `COC(=O)N[C@H](C(=O)N1CC2(CC2)C[C@H]1c1nc(Cl)c(-c2cc3c4c(c2)OCc2cc(-c5[nH]c([C@@H]6CC7(CC7)CN6C(=O)[C@@H](NC(=O)OC)C(C)C)nc5Cl)cc(c2-4)OC3)[nH]1)C(C)C` [Compound 59, dimethyl ((2S,2′S)-((6S,6′S)-((5,10-dihydrochromeno[5,4,3-cde]chromene-2,7-diyl)bis(4-chloro-1H-imidazole-5,2-diyl))bis(5-azaspiro[2.4]heptane-6,5-diyl))bis(3-methyl-1-oxobutane-1,2-diyl))dicarbamate] as the compound, how does the EC50 read?
Answer: 1.5 nM

Question: Which EC50 does the source give for `COC(=O)N[C@H](C(=O)N1[C@@H](C)CC[C@H]1c1nc(Cl)c(-c2cc3c4c(c2)OCc2cc(-c5[nH]c([C@@H]6CC[C@H](C)N6C(=O)[C@@H](NC(=O)OC)C(C)C)nc5C(C)C)cc(c2-4)OC3)[nH]1)C(C)C` [Compound 43, methyl ((S)-1-((2S,5S)-2-(5-(7-(4-chloro-2-((2S,5S)-1-((methoxycarbonyl)-L-valyl)-5-methylpyrrolidin-2-yl)-1H-imidazol-5-yl)-5,10-dihydrochromeno[5,4,3-cde]chromen-2-yl)-4-isopropyl-1H-imidazol-2-yl)-5-methylpyrrolidin-1-yl)-3-methyl-1-oxobutan-2-yl)carbamate] here?
Answer: 1.6 nM

Question: `COC(=O)N[C@H](C(=O)N1CCC[C@H]1c1nc(C(C)(C)C)c(-c2cc3c4c(c2)OCc2cc(-c5[nH]c([C@@H]6CCCN6C(=O)[C@@H](NC(=O)OC)C(C)C)nc5C(C)(C)C)cc(c2-4)OC3)[nH]1)C(C)C` [Compound 76, Dimethyl ((2S,2′S)-((2S,2′S)-((5,10-dihydrochromeno[5,4,3-cde]chromene-2,7-diyl)bis(4-(tert-butyl)-1H-imidazole-5,2-diyl))bis(pyrrolidine-2,1-diyl))bis(3-methyl-1-oxobutane-1,2-diyl))dicarbamate] was tested. Which EC50 did it give?
Answer: 496 nM

Question: How did the EC50 turn out when `COC(=O)N[C@H](C(=O)N1C[C@@H](C)C[C@H]1c1nc(Cl)c(-c2cc3c4c(c2)OCc2cc(-c5[nH]c([C@@H]6C[C@H](C)CN6C(=O)[C@@H](NC(=O)OC)C(C)C)nc5C(C)C)cc(c2-4)OC3)[nH]1)C(C)C` [Compound 80, methyl ((S)-1-((2S,4S)-2-(5-(7-(4-chloro-2-((2S,4S)-1-((methoxycarbonyl)-L-valyl)-4-methylpyrrolidin-2-yl)-1H-imidazol-5-yl)-5,10-dihydrochromeno[5,4,3-cde]chromen-2-yl)-4-isopropyl-1H-imidazol-2-yl)-4-methylpyrrolidin-1-yl)-3-methyl-1-oxobutan-2-yl)carbamate] was run?
Answer: 5.7 nM

Question: For `CC[C@H](C)[C@H](NC(=O)OC)C(=O)N1C[C@H](F)C[C@H]1c1nc(Cl)c(-c2cc3c4c(c2)OCc2cc(-c5[nH]c([C@@H]6C[C@@H](F)CN6C(=O)[C@@H](NC(=O)OC)[C@@H](C)CC)nc5Cl)cc(c2-4)OC3)[nH]1` [Compound 54, dimethyl ((2S,2′S,3S,3′S)-((3R,3′R,5S,5′S)-((5,10-dihydrochromeno[5,4,3-cde]chromene-2,7-diyl)bis(4-chloro-1H-imidazole-5,2-diyl))bis(3-fluoropyrrolidine-5,1-diyl))bis(3-methyl-1-oxopentane-1,2-diyl))dicarbamate], which EC50 is on record?
Answer: 8 nM

Question: Which EC50 does the source give for `CC[C@H](C)[C@H](NC(=O)OC)C(=O)N1[C@@H](C)CC[C@H]1c1nc(Cl)c(-c2cc3c4c(c2)OCc2cc(-c5[nH]c([C@@H]6CC[C@H](C)N6C(=O)[C@@H](NC(=O)OC)[C@@H](C)CC)nc5C(C)C)cc(c2-4)OC3)[nH]1` [Compound 44, methyl ((2S,3S)-1-((2S,5S)-2-(5-(7-(4-chloro-2-((2S,5S)-1-((methoxycarbonyl)-L-isoleucyl)-5-methylpyrrolidin-2-yl)-1H-imidazol-5-yl)-5,10-dihydrochromeno[5,4,3-cde]chromen-2-yl)-4-isopropyl-1H-imidazol-2-yl)-5-methylpyrrolidin-1-yl)-3-methyl-1-oxopentan-2-yl)carbamate] here?
Answer: 1.9 nM

Question: `COC(=O)N[C@H](C(=O)N1[C@H](c2nc(Cl)c(-c3cc4c5c(c3)OCc3cc(-c6[nH]c([C@@H]7C[C@@H]8C[C@@H]8N7C(=O)[C@@H](NC(=O)OC)C(C)C)nc6Cl)cc(c3-5)OC4)[nH]2)C[C@@H]2C[C@@H]21)C(C)C` [Compound 10, dimethyl ((2S,2′S)-((1S,1′S,3S,3′S,5S,5′S)-((5,10-dihydrochromeno[5,4,3-cde]chromene-2,7-diyl)bis(4-chloro-1H-imidazole-5,2-diyl))bis(2-azabicyclo[3.1.0]hexane-3,2-diyl))bis(3-methyl-1-oxobutane-1,2-diyl))dicarbamate] was tested. Which EC50 did it give?
Answer: 7 nM

Question: `COC(=O)N[C@H](C(=O)N1[C@H](c2nc(Cl)c(-c3cc4c5c(c3)OCc3cc(-c6[nH]c([C@@H]7C[C@@H]8CCC[C@@H]8N7C(=O)[C@@H](NC(=O)OC)C(C)C)nc6Cl)cc(c3-5)OC4)[nH]2)C[C@@H]2CCC[C@@H]21)C(C)C` [Compound 29, dimethyl ((2S,2′S)-((2S,2′S,3aS,3a′S,6aS,6a′S)-((5,10-dihydrochromeno[5,4,3-cde]chromene-2,7-diyl)bis(4-chloro-1H-imidazole-5,2-diyl))bis(hexahydrocyclopenta[b]pyrrole-2,1(2H)-diyl))bis(3-methyl-1-oxobutane-1,2-diyl))dicarbamate] was tested. Which EC50 did it give?
Answer: 1.8 nM

Question: How did the EC50 turn out when `COC(=O)N[C@@H](C(=O)N1CC2(CC2)C[C@H]1c1nc(Cl)c(-c2cc3c4c(c2)OCc2cc(-c5[nH]c([C@@H]6CC7(CC7)CN6C(=O)[C@H](NC(=O)OC)C(C)C)nc5C(C)C)cc(c2-4)OC3)[nH]1)C(C)C` [Compound 81, methyl ((R)-1-((S)-6-(5-(7-(4-chloro-2-((S)-5-((methoxycarbonyl)-D-valyl)-5-azaspiro[2.4]heptan-6-yl)-1H-imidazol-5-yl)-5,10-dihydrochromeno[5,4,3-cde]chromen-2-yl)-4-isopropyl-1H-imidazol-2-yl)-5-azaspiro[2.4]heptan-5-yl)-3-methyl-1-oxobutan-2-yl)carbamate] was run?
Answer: > 1000 nM

Question: With `COC(=O)N[C@H](C(=O)N[C@H](c1nc(Cl)c(-c2cc3c4c(c2)OCc2cc(-c5[nH]c([C@@H](NC(=O)[C@@H](NC(=O)OC)C(C)C)C(C)(C)C)nc5Cl)cc(c2-4)OC3)[nH]1)C(C)(C)C)C(C)C` [Compound 20, dimethyl ((2S,2′S)-(((1S,1′S)-((5,10-dihydrochromeno[5,4,3-cde]chromene-2,7-diyl)bis(4-chloro-1H-imidazole-5,2-diyl))bis(2,2-dimethylpropane-1,1-diyl))bis(azanediyl))bis(3-methyl-1-oxobutane-1,2-diyl))dicarbamate] as the compound, how does the EC50 read?
Answer: > 368 nM

Question: Which EC50 does the source give for `COC(=O)N[C@H](C(=O)N1[C@H](C)CC[C@H]1c1nc(Cl)c(-c2cc3c4c(c2)OCc2cc(-c5[nH]c([C@@H]6CC[C@@H](C)N6C(=O)[C@@H](NC(=O)OC)C(C)(C)C(F)(F)F)nc5Cl)cc(c2-4)OC3)[nH]1)C(C)(C)C(F)(F)F` [Compound 65, dimethyl ((2S,2′S)-((2R,2′R,5S,5′S)-((5,10-dihydrochromeno[5,4,3-cde]chromene-2,7-diyl)bis(4-chloro-1H-imidazole-5,2-diyl))bis(2-methylpyrrolidine-5,1-diyl))bis(4,4,4-trifluoro-3,3-dimethyl-1-oxobutane-1,2-diyl))dicarbamate] here?
Answer: 71.7 nM

Question: For `COC(=O)N[C@H](C(=O)N1[C@@H](C)CC[C@H]1c1nc(Cl)c(-c2cc3c4c(c2)OCc2cc(-c5[nH]c([C@@H]6CC[C@H](C)N6C(=O)[C@@H](NC(=O)OC)C6C[C@@H](C)O[C@H](C)C6)nc5Cl)cc(c2-4)OC3)[nH]1)C1C[C@@H](C)O[C@H](C)C1` (stereo partly drawn) [Compound 21, dimethyl ((1S,1′S)-((2S,2′S,5S,5′S)-((5,10-dihydrochromeno[5,4,3-cde]chromene-2,7-diyl)bis(4-chloro-1H-imidazole-5,2-diyl))bis(2-methylpyrrolidine-5,1-diyl))bis(1-((2R,6R)-2,6-dimethyltetrahydro-2H-pyran-4-yl)-2-oxoethane-2,1-diyl))dicarbamate], which EC50 is on record?
Answer: 9.3 nM
